According to US11471442B2, “Administration of gut-selective JAK3 inhibitor” (THERAVANCE BIOPHARMA R&D IP, LLC, priority 2020, dated 2022):
Like-named read-outs stand apart in the source and are kept apart here.

Experiments:
[1] = Phase 1 multiple ascending dose (MAD, Part B) safety and tolerability in healthy subjects; format: in vivo, human; details: for Most frequent TEAEs: Acne / Most frequent TEAEs: Dizziness / Most frequent TEAEs: Headache / Most frequent TEAEs: Pain in extremity / Subjects with TEAEs: Any TEAE / Subjects with TEAEs: Moderate or severe TEAE / Subjects with TEAEs: Serious TEAE / Subjects with TEAEs: TEAE leading to discontinuation / Total number of TEAEs: MAD, n = 6
Text: This clinical study was the first in human study of a compound of formula (I). The purpose of this study was to assess the safety, tolerability and pharmacokinetics (PK) of the compound of formula (I) through single ascending dose administration (Part A) and multiple dose administrations (Part B) in healthy subjects.
The number and severity of treatment emergent adverse events (TEAE5) following single (Part A) or multiple (Parts B) oral doses of the compound of formula (I) and matching placebo, and changes in safety laboratory assessments, vital signs, and ECGs.
24 healthy, adult male and female subjects were enrolled in Part B. […] cohorts (B1 to B3) of 8 healthy subjects (6 active and 2 placebo) were evaluated.
(§1) In each cohort, healthy subjects meeting eligibility criteria were sequentially randomized in a 3:1 ratio to receive either the compound of formula (I) or placebo BID, each morning and evening (approximately 12 hours following the morning dose) for 10 consecutive days of dosing, except for Day 10 where subjects were only received a morning dose. Subjects were dosed in an upright (i.e., seated or standing) position and remained upright for 5 minutes after dosing before a posture change for other study procedures, if applicable. Subjects fasted overnight for at least 9.5 hours prior to morning dose on Day 1 and Day 10. Subjects continued the fast for at least 4 hours post morning dose on these days. For all other morning doses and for all evening doses (i.e., Day 1 evening and Days 2 to 9), subjects were required to fast for at least 2 hours prior and for at least 2 hours following the dose.
Safety was determined by evaluating physical examinations, vital signs, safety 12-lead electrocardiograms (ECGs) monitoring, clinical laboratory tests, and adverse events (AEs). For procedures scheduled to be performed at common times, collection of PK samples was collected as close as possible to the designated time. The cardiodynamic recordings via ECG extractions from the Holter monitor were conducted as close as possible prior to the corresponding PK sampling. Vital signs, followed by safety ECGs, were be taken before the PK sampling (or before the cardiodynamic sampling if scheduled at the same time), unless PK samples were late as a result in which case vital signs were taken following the PK sampling.
Safety analyses were performed using the Safety analysis set. Safety variables include vital signs, adverse events, clinical laboratory results (hematology, chemistry, coagulation, and urinalysis), and ECG parameters, such as Friderica's corrected QT interval (QTcF), PR interval, QT interval, QRS interval, and heart rate, from standard safety digital ECGs. Vital signs were summarized in terms of observed values and changes from baseline.

[2] = Caco-2 permeation assay; format: in vitro ADME; details: human, read-out: Kp (permeability)
[3] = Phase 1 MAD (Part B) plasma pharmacokinetics in healthy subjects; format: in vivo, human; details: for half-life: read-out: t1/2, mean (SD) (converted); for AUC: part B (MAD), 100 to 1000 mg BID
Protocol: The plasma PK parameters of the compound of formula (I) calculated following single (Part A) or multiple (Parts B) oral doses.
as §1
PK sampling for the compound of formula (I) in plasma was taken Day 1 pre-morning dose and for 12 hours post-dose and Day 10 pre-morning dose and for 72 hours post Day 10 dose. Additional pre morning dose samples were taken on Days 2, 4, 6, and 8.
For all subjects, blood samples for the determination of plasma concentration of the compound of formula (I) were collected at scheduled time points. Blood samples were analyzed to calculate different plasma PK parameters in both part A and part B.
For all PK data analyses, the PK analysis set was used. Individual subject and mean plasma drug concentration versus time curves for the compound of formula (I) were presented for each dose group. Summary statistics (mean, standard deviation, coefficient of variation, median, minimum, maximum, geometric mean, geometric coefficient of variation, number of subjects) were calculated for plasma concentrations at each time point for each dose group, and the PK parameters for each dose group. Urine PK parameters were summarized for exploratory purposes.

[4] = plasma, Day 1, 100 mg BID, n = 6
[5] = plasma, Day 1, 300 mg BID, n = 6
[6] = plasma, Day 1, 1000 mg BID, n = 6
[7] = plasma, Day 10, 100 mg BID, n = 6
[8] = plasma, Day 10, 300 mg BID, n = 6

CN(C)C/C=C/C(=O)N1CC(COc2cc(-c3ccc(O)cc3)cc3[nH]ncc23)C1 [compound of formula (I)]
serious AEs ([1]; MAD cohorts): No serious AEs
severity of reported treatment-emergent AEs ([1]; MAD cohorts): mild
changes from predose baseline in laboratory assessments (lipid, coagulation, hematology), vital signs or ECGs ([1]; MAD cohorts, any time point postdose): No clinically significant changes
Most frequent TEAEs: Acne ([1]; 100 mg BID oral for 10 days): 1 (17)
Most frequent TEAEs: Dizziness ([1]; 100 mg BID oral for 10 days): 2 (33)
Most frequent TEAEs: Headache ([1]; 100 mg BID oral for 10 days): 2 (33)
Most frequent TEAEs: Pain in extremity ([1]; 100 mg BID oral for 10 days): 1 (17)
Subjects with TEAEs: Any TEAE ([1]; 100 mg BID oral for 10 days): 5 (83)
Subjects with TEAEs: Moderate or severe TEAE ([1]; 100 mg BID oral for 10 days): 0
Subjects with TEAEs: Serious TEAE ([1]; 100 mg BID oral for 10 days): 0
Subjects with TEAEs: TEAE leading to discontinuation ([1]; 100 mg BID oral for 10 days): 0
Total number of TEAEs ([1]; 100 mg BID oral for 10 days): 11
Most frequent TEAEs: Acne ([1]; 300 mg BID oral for 10 days): 0
Most frequent TEAEs: Dizziness ([1]; 300 mg BID oral for 10 days): 0
Most frequent TEAEs: Headache ([1]; 300 mg BID oral for 10 days): 0
Most frequent TEAEs: Pain in extremity ([1]; 300 mg BID oral for 10 days): 0
Subjects with TEAEs: Any TEAE ([1]; 300 mg BID oral for 10 days): 1 (17)
Subjects with TEAEs: Moderate or severe TEAE ([1]; 300 mg BID oral for 10 days): 0
Subjects with TEAEs: Serious TEAE ([1]; 300 mg BID oral for 10 days): 0
Subjects with TEAEs: TEAE leading to discontinuation ([1]; 300 mg BID oral for 10 days): 0
Total number of TEAEs ([1]; 300 mg BID oral for 10 days): 9
Most frequent TEAEs: Acne ([1]; 1000 mg BID oral for 10 days): 0
Most frequent TEAEs: Dizziness ([1]; 1000 mg BID oral for 10 days): 0
Most frequent TEAEs: Headache ([1]; 1000 mg BID oral for 10 days): 0
Most frequent TEAEs: Pain in extremity ([1]; 1000 mg BID oral for 10 days): 0
Subjects with TEAEs: Any TEAE ([1]; 1000 mg BID oral for 10 days): 0
Subjects with TEAEs: Moderate or severe TEAE ([1]; 1000 mg BID oral for 10 days): 0
Subjects with TEAEs: Serious TEAE ([1]; 1000 mg BID oral for 10 days): 0
Subjects with TEAEs: TEAE leading to discontinuation ([1]; 1000 mg BID oral for 10 days): 0
Total number of TEAEs ([1]; 1000 mg BID oral for 10 days): 0
tolerability ([1]; multiple doses up to 1000 mg BID for 10 days): generally well-tolerated
Papp [2]: < 50 nm/s
time to steady state ([3]; 100 mg BID): 7 days
Accumulation ratio (AUC0-12,ss/AUC0-12), Geometric mean (CV %) ([3]; 100 mg BID, n = 6): 2.5 (35.2)
Accumulation ratio (AUC0-12,ss/AUC0-12), Mean (SD) ([3]; 100 mg BID, n = 6): 2.6 (0.78)
time to steady state ([3]; 300 mg BID): 3 days
Accumulation ratio (AUC0-12,ss/AUC0-12), Geometric mean (CV %) ([3]; 300 mg BID, n = 6): 2.3 (51.9)
Accumulation ratio (AUC0-12,ss/AUC0-12), Mean (SD) ([3]; 300 mg BID, n = 6): 2.5 (1.1)
fold mean Cmax,ss below the protein-adjusted JAK3 IC50 ([3]; 1000 mg BID): approximately 11 fold
time to steady state ([3]; 1000 mg BID): 3 days
Accumulation ratio (AUC0-12,ss/AUC0-12), Geometric mean (CV %) ([3]; 1000 mg BID, n = 6): 2.3 (92.5)
Accumulation ratio (AUC0-12,ss/AUC0-12), Mean (SD) ([3]; 1000 mg BID, n = 6): 2.9 (1.7)
dose proportionality of exposure (AUC and Cmax) ([3]; after multiple-dose administration): dose proportionally
Tmax ([3]; both sexes, human, oral, plasma, Day 10 (morning dose), 100 mg BID, n = 6, read-out: Tmax,ss, median (min, max)): 2 h
half-life ([3]; both sexes, human, oral, plasma, Day 10 (morning dose), 100 mg BID, n = 6): 19.8 h
Tmax ([3]; both sexes, human, oral, plasma, Day 10 (morning dose), 300 mg BID, n = 6, read-out: Tmax,ss, median (min, max)): 1 h
half-life ([3]; both sexes, human, oral, plasma, Day 10 (morning dose), 300 mg BID, n = 6): 19.2 h
Tmax ([3]; both sexes, human, oral, plasma, Day 10 (morning dose), 1000 mg BID, n = 6, read-out: Tmax,ss, median (min, max)): 1 h
half-life ([3]; both sexes, human, oral, plasma, Day 10 (morning dose), 1000 mg BID, n = 6): 18.5 h
AUC(0-t) ([3]; both sexes, human, plasma, oral, 100 mg, plasma, Day 1 (morning dose), 100 mg BID, n = 6, read-out: AUC0-12, mean (SD)): 0.0035 µg·h/mL
AUC(0-t) ([3]; both sexes, human, plasma, oral, 100 mg, plasma, Day 10 (morning dose), 100 mg BID, n = 6, read-out: AUC0-12,ss, mean (SD)): 0.0089 µg·h/mL
Cmax ([3]; both sexes, human, plasma, oral, 100 mg, plasma, Day 10 (morning dose), 100 mg BID, n = 6, read-out: Cmax,ss, mean (SD)): 1.7 ng/mL
AUC(0-t) ([3]; both sexes, human, plasma, oral, 300 mg, plasma, Day 1 (morning dose), 300 mg BID, n = 6, read-out: AUC0-12, mean (SD)): 0.0085 µg·h/mL
AUC(0-t) ([3]; both sexes, human, plasma, oral, 300 mg, plasma, Day 10 (morning dose), 300 mg BID, n = 6, read-out: AUC0-12,ss, mean (SD)): 0.0169 µg·h/mL
Cmax ([3]; both sexes, human, plasma, oral, 300 mg, plasma, Day 10 (morning dose), 300 mg BID, n = 6, read-out: Cmax,ss, mean (SD)): 3.5 ng/mL
AUC(0-t) ([3]; both sexes, human, plasma, oral, 1000 mg, plasma, Day 1 (morning dose), 1000 mg BID, n = 6, read-out: AUC0-12, mean (SD)): 0.0374 µg·h/mL
AUC(0-t) ([3]; both sexes, human, plasma, oral, 1000 mg, plasma, Day 10 (morning dose), 1000 mg BID, n = 6, read-out: AUC0-12,ss, mean (SD)): 0.0621 µg·h/mL
Cmax ([3]; both sexes, human, plasma, oral, 1000 mg, plasma, Day 10 (morning dose), 1000 mg BID, n = 6, read-out: Cmax,ss, mean (SD)): 13.3 ng/mL
Tmax ([3]; human, oral, plasma, Day 1 (morning dose), 100 mg BID, n = 6, read-out: Tmax, median (min, max)): 1.5 h
Tmax ([3]; human, oral, plasma, Day 1 (morning dose), 300 mg BID, n = 6, read-out: Tmax, median (min, max)): 1 h
Tmax ([3]; human, oral, plasma, Day 1 (morning dose), 1000 mg BID, n = 6, read-out: Tmax, median (min, max)): 1.5 h
Cmax ([3]; human, plasma, oral, 100 mg, plasma, Day 1 (morning dose), 100 mg BID, n = 6, read-out: Cmax, mean (SD)): 0.78 ng/mL
Cmax ([3]; human, plasma, oral, 300 mg, plasma, Day 1 (morning dose), 300 mg BID, n = 6, read-out: Cmax, mean (SD)): 2.6 ng/mL
Cmax ([3]; human, plasma, oral, 1000 mg, highest tested dose (1000 mg BID), read-out: mean Cmax,ss (maximum observed concentration at steady-state)): 13 ng/mL
Cmax ([3]; human, plasma, oral, 1000 mg, plasma, Day 1 (morning dose), 1000 mg BID, n = 6, read-out: Cmax, mean (SD)): 10.7 ng/mL
AUC ([3]; human, plasma, oral, read-out: AUCss0-12 in the plasma of the subjects (range)): 0.00543 to 0.0885 µg·h/mL
AUC ([3]; human, plasma, oral, read-out: average AUCss0-12): 0.00894 to 0.0621 µg·h/mL
concentration at 10 days ([3]; human, plasma, oral, multiple doses up to 1000 mg BID, read-out: Plasma concentrations): < 35 ng/mL
Dose normalized AUC0-12/D, mean (SD) [3, 4]: 0.035 (0.012) ng*hr/mL/mg
Dose normalized Cmax/D, mean (SD) [3, 4]: 0.0078 (0.0033) ng/mL/mg
Dose normalized AUC0-12/D, mean (SD) [3, 5]: 0.028 (0.016) ng*hr/mL/mg
Dose normalized Cmax/D, mean (SD) [3, 5]: 0.0086 (0.0079) ng/mL/mg
Dose normalized AUC0-12/D, mean (SD) [3, 6]: 0.037 (0.039) ng*hr/mL/mg
Dose normalized Cmax/D, mean (SD) [3, 6]: 0.011 (0.013) ng/mL/mg
Dose normalized AUC0-12,ss/D, mean (SD) [3, 7]: 0.089 (0.036) ng*hr/mL/mg
Dose normalized Cmax,ss/D, mean (SD) [3, 7]: 0.017 (0.0080) ng/mL/mg
Dose normalized AUC0-12,ss/D, mean (SD) [3, 8]: 0.056 (0.012) ng*hr/mL/mg
Dose normalized Cmax,ss/D, mean (SD) [3, 8]: 0.012 (0.0045) ng/mL/mg
Dose normalized Cmax,ss/D, mean (SD) ([3]; plasma, Day 10, 1000 mg BID, n = 6): 0.013 (0.0084) ng/mL/mg
